# Legend:
# [1] = mRNA encapsulation efficiency of lipid nanoparticles (RiboGreen assay); assay type: physicochemical; conditions: hEPO mRNA LNP, Process A, Cationic Lipid:DMG-PEG2000:Cholesterol:DOPE 40:1.5:28.5:30 mol %, N/P 4
# Text: In embodiments, the lipid nanoparticle encapsulates a nucleic acid, optionally an mRNA encoding a peptide or protein. In embodiments, the lipid nanoparticle encapsulates an mRNA encoding a peptide or protein, optionally for use in a vaccine. In embodiments, the peptide is an antigen. As used herein, the phrase “encapsulation percentage” refers to the fraction of therapeutic agent (e.g. mRNA) that is effectively encapsulated within a liposomal-based vehicle (e.g. a lipid nanoparticle) relative to the initial fraction of therapeutic agent present in the lipid phase. In embodiments, the lipid nanoparticles have an encapsulation percentage for mRNA of at least 50%. In embodiments, the lipid nanoparticles have an encapsulation percentage for mRNA of at least 55%. In embodiments, the lipid nanoparticles have an encapsulation percentage for mRNA of at least 60%. In embodiments, the lipid nanoparticles have an encapsulation percentage for mRNA of at least 65%. In embodiments, the lipid nanoparticles have an encapsulation percentage for mRNA of at least 70%. In embodiments, the lipid nanoparticles have an encapsulation percentage for mRNA of at least 75%. In embodiments, the lipid nanoparticles have an encapsulation percentage for mRNA of at least 80%. In embodiments, the lipid nanoparticles have an encapsulation percentage for mRNA of at least 85%. In embodiments, the lipid nanoparticles have an encapsulation percentage for mRNA of at least 90%. In embodiments, the lipid nanoparticles have an encapsulation percentage for mRNA of at least 95%. In embodiments, the encapsulation percentage is calculated by performing the Ribogreen assay (Invitrogen) with and without the presence of 0.1% Triton-X 100.
# (§1) Lipid nanoparticle formulations of Table 1 were prepared by Process A. All of the lipid nanoparticle formulations comprised hEPO mRNA and the different lipids (Cationic Lipid: DMG-PEG2000: Cholesterol: DOPE) in mol % ratios of 40:1.5:28.5:30 (Cationic Lipid: DMG-PEG2000: Cholesterol: DOPE).
# The RiboGreen Assay is a fluorescence-based method for the determination of mRNA concentration (Total and Free) and % encapsulation using Quant-iT™ RiboGreen® RNA reagent in mRNA containing lipid nanoparticles.
# • To each of the standards (Blank, mRNA-1, mRNA-2. mRNA-3, mRNA-4, mRNA-5) and Samples (free mRNA and total mRNA), add 1.0 mL of 200-fold Ribogreen Reagent Solution and gently mix by inversion. This is a 2× Dilution. • Add 200 μL of each standard and sample in triplicate using the reverse pipetting technique in a 96-well Costar Black with Clear Background Plate. Ensure no bubbles are present in the plate before the fluorescence reading. • Read the fluorescence signal using the below instrument parameters: • Read Type: Fluorescence, Bottom Read • Excitation: 485 nm; Cut-off: 515 nm; Emission: 530 nm • Plate Type: 96-well Costar Black with Clear Background
# The average fluorescence from each calibration standard is plotted against the concentration to generate a linear calibration curve using the MS Excel software. The coefficient of determination (R^2) of calibration curve must be R^2>0.99.
# [formula] • Where, • Y=average fluorescence value • m: slope • x: concentration (pg/mL) • c: y-intercept • Using the linear equation, calculate the concentration of free and total mRNA concentration in the test sample by replacing the y value in the equation with the average fluorescence value of each respective sample • Once the concentration is determined, the actual concentration in the sample can be back-calculated by multiplying the concentration in the test sample with the dilution factor (DF) as follows:
# [formula] [formula] • Concentration of encapsulated mRNA can be determined by subtracting the concentration of free mRNA from the total mRNA. • % Encapsulation can then be calculated by taking the ratio of encapsulated mRNA over total mRNA and multiplying the result with 100.
# [2] = tested on: BALB/cJ mice; assay: Delivery of hEPO mRNA by intramuscular administration of LNPs; serum hEPO by ELISA; assay type: in vivo, Mouse
# Protocol: In summary, lipid screening studies were conducted with female BALB/cJ mice 6-8 weeks of age. Mice were dosed with 0.1 μg in 30 μL of LNPs by a single intramuscular (IM) injection into the gastrocnemius leg muscle. Blood samples were taken 6 and 24 hours post injection and hEPO levels were measured in the blood serum of the mice using an ELISA assay according to the manufacture's protocol.
# Treatment Regimen: On Day 1, animals from Groups 1-33 were dosed via intramuscular injection while under light isoflurane anesthesia according to the study design table above. Animals in Groups 1-33 were injected with EPO mRNA LNPs in the right leg only. Groups 1 and 17 animals received MC3 control.
# Interim Sample Collections: Interim whole blood (^~50 μL) was collected by tail snip or saphenous vein at 6 and 24 hours post dose administration (±5%). Blood samples were collected into serum separator tubes, allowed to clot at room temperature for at least 10 minutes, centrifuged at ambient temperature at minimum 1000 g for 10 minutes and the serum was extracted. All serum samples were stored at nominally −70° C. until analysis hEPO by the Testing Facility. The results of the EPO analysis were included in the Data Submission.
# Terminal Blood Collections: Whole blood was collected via cardiac puncture into serum separator tube, allowed to clot at room temperature for at least 10 minutes, centrifuged at ambient temperature at minimum 1000 g for 10 minutes and the serum was extracted. Serum samples were stored at nominally −70° C. until analyzed for hEPO by the Test Facility.
# ELISA Assay: Human erythropoietin (hEPO) levels in sera samples were determined by ELISA kit (R&D systems, Cat #DEP-00) according to the manufactory instruction and the results were included in the Data Submission. The “shaker” protocol was used. The serum samples were diluted between 1:40 and 1:100.
# [3] = Lipid nanoparticle size and polydispersity index by dynamic light scattering (Malvern Zetasizer); assay type: physicochemical; conditions: hEPO mRNA LNP, Process A, Cationic Lipid:DMG-PEG2000:Cholesterol:DOPE 40:1.5:28.5:30 mol %, N/P 4
# Text: The lipid nanoparticles in the examples of the present invention were formulated using Process A of WO 2018/089801 (see, e.g., Example 1 and FIG. 1 of WO 2018/089801). Process A (“A”) relates to a conventional method of encapsulating mRNA by mixing mRNA with a mixture of lipids, without first pre-forming the lipids into lipid nanoparticles. In an exemplary process, an ethanolic solution of a mixture of lipids (cationic lipid, phosphatidylethanolamine, cholesterol, and polyethylene glycol-lipid) at a fixed lipid to mRNA ratio were combined with an aqueous buffered solution of target mRNA at an acidic pH under controlled conditions to yield a suspension of uniform LNPs. After ultrafiltration and diafiltration into a suitable diluent system, the resulting nanoparticle suspensions were diluted to final concentration, filtered, and stored frozen at −80° C. until use.
# as §1
# The Polydispersity Index (Pdl) of lipid nanoparticles can be determined by diluting the formulation in 10% trehalose at about 0.1 mg/ml mRNA concentration and then measuring the size on Malvern zetasizer. The lipid nanoparticle size can be obtained with Malvern Zetasizer Nano-ZS.
# Dynamic light scattering (DLS) measurements were performed using a Malvern Instruments Zetasizer with a backscattering detector angle of 173° and a 4-mW, 633-nm He—Ne laser (Worcestershire, UK). The samples were analyzed by diluting in 10% Trehalose and measuring the size and Poly dispersity Index (PDI) in an optical grade polystyrene cuvette.
# [4] = Table 4, further lipids, mouse serum 6 hours post IM injection of hEPO mRNA LNP as in example 3
# [5] = Table 2, isosorbide-derived lipids, mouse serum 6 hours post single IM injection of 0.1 μg hEPO mRNA LNP
# [6] = Table 3, isomannide-derived lipids, mouse serum 6 hours post single IM injection of 0.1 μg hEPO mRNA LNP
Structure (SMILES),Encapsulation efficiency (EE) % [1],"hEPO 6 Hr (ng/ml) Mean [2, 4]",Polydispersity Index (PDI) [3],Size (nm) [3],"hEPO 6 Hr (ng/ml) Mean [2, 5]","hEPO 6 Hr (ng/mL) Mean [2, 6]","hEPO 24 Hr (ng/ml) Mean ([2]; Table 3, isomannide-derived lipids, mouse serum 24 hours post single IM injection of 0.1 μg hEPO mRNA LNP)"
CCCCCCCCC(O)CN(CCCC(=O)N[C@H]1CO[C@H]2[C@@H]1OC[C@@H]2NC(=O)CCCN(CC(O)CCCCCCCC)CC(O)CCCCCCCC)CC(O)CCCCCCCC (stereo partly shown) [Compound 51],81%,47.6 ng/mL,0.12,71 nm,–,–,–
CCCCCCCCCCC(O)CN(CCCC(=O)O[C@H]1CO[C@H]2[C@@H]1OC[C@H]2OC(=O)CCCN(CC(O)CCCCCCCCCC)CC(O)CCCCCCCCCC)CC(O)CCCCCCCCCC (stereo partly shown) [Compound 29],96%,–,0.13,126 nm,38.4 ng/mL,–,–
CCCCCCCCCCCOC(=O)CCCC(O)CN(CCCC(=O)O[C@@H]1CO[C@H]2[C@@H]1OC[C@@H]2OC(=O)CCCN(CC(O)CCCCCCCCCC)CC(O)CCCCCCCCCC)CC(O)CCCCCC(=O)OC(CCCCCCCC)CCCCCCCC (stereo in doubt) [Compound 32],94%,–,0.2,94 nm,33.2 ng/mL,–,–
CCCCCCCCCCCCCCC(O)CN(CCCC(=O)O[C@@H]1CO[C@H]2[C@@H]1OC[C@H]2OC(=O)CCCCN(CC(O)CCCCCCCCCC)CC(O)CCCCCCCCCC)CC(O)CCCCCCCCCCCCCC (stereo partly shown) [Compound 8],95%,–,0.13,91 nm,–,25.7 ng/mL,–
CCCCCCCCCCCCCCC(O)CN(CCCC(=O)O[C@@H]1CO[C@H]2[C@@H]1OC[C@H]2OC(=O)CCCN(CC(O)CCCCCCCCCCCCCC)CC(O)CCCCCCCCCCCCCC)CC(O)CCCCCCCCCCCCCC (stereo partly shown) [Compound 6],99%,–,0.16,114 nm,–,40.9 ng/mL,–
CCCCCCCCCCCCC(O)CN(CCCCC(=O)O[C@H]1CO[C@H]2[C@@H]1OC[C@H]2OC(=O)CCCCN(CC(O)CCCCCCCCCCCC)CC(O)CCCCCCCCCCCC)CC(O)CCCCCCCCCCCC (stereo partly shown) [Compound 28],94%,–,0.103,91 nm,40.2 ng/mL,–,–
CCCCCCCCCCCCC(O)CN(CCCC(=O)N[C@H]1CO[C@H]2[C@@H]1OC[C@@H]2NC(=O)CCCN(CC(O)CCCCCCCCCCCC)CC(O)CCCCCCCCCCCC)CC(O)CCCCCCCCCCCC (stereo partly shown) [Compound 55],99%,30.9 ng/mL,0.15,101 nm,–,–,–
CCCCCCCCCCC(O)CN(CCCC(=O)O[C@H]1CO[C@H]2[C@@H]1OC[C@H]2OC(=O)CCCN(CC(O)CCCCCCCC)CC(O)CCCCCCCC)CC(O)CCCCCCCCCC (stereo partly shown) [Compound 22],91%,–,0.1,75 nm,34.1 ng/mL,–,–
CCCCCCCCCCCOC(=O)CCCC(O)CN(CCCC(=O)O[C@@H]1CO[C@H]2[C@@H]1OC[C@H]2OC(=O)CCCN(CC(O)CCCCCCCCCC)CC(O)CCCCCCCCCC)CC(O)CCCCCC(=O)OC(CCCCCCCC)CCCCCCCC (stereo partly shown) [Compound 9],91%,–,0.1,114 nm,–,30.7 ng/mL,19.8 ng/mL
CCCCCCCCCCCCC(O)CN(CCCOC(=O)O[C@@H]1CO[C@H]2[C@@H]1OC[C@H]2OC(=O)OCCCN(CC(O)CCCCCCCCCCCC)CC(O)CCCCCCCCCCCC)CC(O)CCCCCCCCCCCC (stereo partly shown) [Compound 37],95%,–,0.25,65 nm,–,27.4 ng/mL,–
CCCCCCCCC(O)CN(CCCCC(=O)O[C@@H]1CO[C@H]2[C@@H]1OC[C@H]2OC(=O)CCCCN(CC(O)CCCCCCCC)CC(O)CCCCCCCC)CC(O)CCCCCCCC (stereo partly shown) [Compound 2],68%,–,0.16,77 nm,–,36.3 ng/mL,–
CCCCCCCCCCCCC(O)CN(CCCOC(=O)N[C@H]1CO[C@H]2[C@@H]1OC[C@@H]2NC(=O)OCCCN(CC(O)CCCCCCCCCCCC)CC(O)CCCCCCCCCCCC)CC(O)CCCCCCCCCCCC (stereo partly shown) [Compound 53],96%,72.0 ng/mL,0.2,97 nm,–,–,–

# From patent publication US20260224486A1, “DIANHYDROHEXITOL BASED IONIZABLE LIPIDS FOR NUCLEIC ACID DELIVERY” (SANOFI PASTEUR INC., priority 2023, published 2026)
